Assay results: doi:10.1101/2022.03.02.482641v1 (biorxiv, 2022)

Legend:
Type in all cases: biochemical
[1] = target: T1, hSARM1 (hSARM1 w.t., near-intact, 26ERL...GPT724) (Homo sapiens, UniProt Q6SZW1); test: HPLC of ADPR formation
T1 sequence (Q6SZW1 26-724): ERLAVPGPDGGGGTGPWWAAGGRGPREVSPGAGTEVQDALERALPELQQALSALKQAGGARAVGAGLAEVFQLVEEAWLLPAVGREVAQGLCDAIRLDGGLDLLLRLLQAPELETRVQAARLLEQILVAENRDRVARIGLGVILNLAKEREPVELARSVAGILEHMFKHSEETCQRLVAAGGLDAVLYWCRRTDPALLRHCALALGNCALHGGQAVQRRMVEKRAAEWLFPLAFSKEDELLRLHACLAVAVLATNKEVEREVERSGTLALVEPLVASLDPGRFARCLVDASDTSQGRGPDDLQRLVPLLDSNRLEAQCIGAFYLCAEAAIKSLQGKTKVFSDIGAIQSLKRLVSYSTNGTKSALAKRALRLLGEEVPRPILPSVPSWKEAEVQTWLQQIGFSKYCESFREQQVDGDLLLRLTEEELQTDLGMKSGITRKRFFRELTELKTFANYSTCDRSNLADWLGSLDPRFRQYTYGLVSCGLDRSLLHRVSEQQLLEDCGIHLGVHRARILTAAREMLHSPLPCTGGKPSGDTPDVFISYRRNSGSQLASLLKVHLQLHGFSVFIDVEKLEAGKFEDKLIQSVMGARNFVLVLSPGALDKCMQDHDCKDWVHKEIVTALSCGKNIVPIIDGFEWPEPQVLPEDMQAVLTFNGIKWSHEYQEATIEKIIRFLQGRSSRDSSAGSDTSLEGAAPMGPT

[2] = target: T2, zfSARM1 (zebrafish SARM1, zfSARM1 w.t.) (Danio rerio, UniProt F1QWA8); test: HPLC of ADPR formation
T2 sequence (F1QWA8 22-713): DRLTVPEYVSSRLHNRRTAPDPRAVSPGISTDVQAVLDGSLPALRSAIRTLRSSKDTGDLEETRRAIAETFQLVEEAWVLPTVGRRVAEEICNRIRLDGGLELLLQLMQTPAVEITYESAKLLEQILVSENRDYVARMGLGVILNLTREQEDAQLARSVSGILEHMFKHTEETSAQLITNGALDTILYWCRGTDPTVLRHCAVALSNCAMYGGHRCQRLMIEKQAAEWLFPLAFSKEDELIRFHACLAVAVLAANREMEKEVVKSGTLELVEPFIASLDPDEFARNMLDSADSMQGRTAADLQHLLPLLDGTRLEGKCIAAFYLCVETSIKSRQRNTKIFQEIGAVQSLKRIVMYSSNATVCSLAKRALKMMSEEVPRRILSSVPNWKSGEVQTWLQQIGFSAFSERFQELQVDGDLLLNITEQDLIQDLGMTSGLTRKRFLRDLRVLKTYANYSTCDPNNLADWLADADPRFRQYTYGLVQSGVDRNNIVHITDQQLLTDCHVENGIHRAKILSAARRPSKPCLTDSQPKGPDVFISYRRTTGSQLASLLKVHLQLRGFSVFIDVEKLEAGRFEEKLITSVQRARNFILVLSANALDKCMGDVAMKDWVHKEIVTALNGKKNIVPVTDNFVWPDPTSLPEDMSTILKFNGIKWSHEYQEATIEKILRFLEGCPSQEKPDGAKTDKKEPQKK

[3] = target: T2, zfSARM1 (zebrafish SARM1, zfSARM1 w.t.); test: NADase kinetics, HPLC, substrate inhibition fit; settings: apparent substrate inhibition by NAD+
[4] = target: T1, hSARM1 (hSARM1 w.t., near-intact, 26ERL...GPT724); test: NADase kinetics, HPLC, substrate inhibition fit; settings: apparent substrate inhibition by NAD+

Structure (SMILES) | IC50 [1] [µM] | EC50 [2] [µM] | Ki [3] [µM] | Ki [4] [µM]
CCOC(=O)Cn1sc2nc(C)cc(C)c2c1=O [TK142] | 1.8 |  |  | 
Cn1c(=O)c(I)c(O)c2ccccc21 [TK210] | 4.6 |  |  | 
O=c1[nH]sc2ccccc12 [TK222] | 3.2 |  |  | 
N#Cc1c(O)nsc1Nc1ccccc1C(F)(F)F [TK138] | 2.9 | 2.7 |  | 
NC(=O)c1ccc[n+]([C@@H]2O[C@H](COP(=O)([O-])OP(=O)(O)OC[C@H]3O[C@@H](n4cnc5c(N)ncnc54)[C@H](O)[C@@H]3O)[C@@H](O)[C@H]2O)c1 [NAD+] |  |  | 1350 | 727
